Results published in US20230127839A1, “COMPOUNDS AND COMPOSITIONS FOR TREATING CONDITIONS ASSOCIATED WITH STING ACTIVITY” (IFM Due, Inc., priority 2019, published 2023).

biological target: T1, hSTING (Homo sapiens, UniProt Q86WV6, G230A/H232R/R293Q/R71H); assay: STING reporter assay (luciferase) in THP1-Dual KO-IFNAR2 cells stimulated with 2'3'cGAMP; assay type: cell-based; details: 2'3'cGAMP 15 μM, 24 h, luciferase reporter activity
T1 construct: host or cells: THP1-Dual KO-IFNAR2 cells
Summary of the method: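 THP1-Dual KO-IFNAR2 cells (2×10E6 cells/mL) exposed to compounds at 0.0017-100 μM final, then stimulated with 2′3′cGAMP (15 μM final) delivered by Lipofectamine 2000 transfection. After 24 h at 37° C, secreted luciferase in supernatant read by QUANTI-Luc luminescence; EC50 calculated.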

T1 sequence (Q86WV6 whole entry R71H/G230A/H232R/R293Q): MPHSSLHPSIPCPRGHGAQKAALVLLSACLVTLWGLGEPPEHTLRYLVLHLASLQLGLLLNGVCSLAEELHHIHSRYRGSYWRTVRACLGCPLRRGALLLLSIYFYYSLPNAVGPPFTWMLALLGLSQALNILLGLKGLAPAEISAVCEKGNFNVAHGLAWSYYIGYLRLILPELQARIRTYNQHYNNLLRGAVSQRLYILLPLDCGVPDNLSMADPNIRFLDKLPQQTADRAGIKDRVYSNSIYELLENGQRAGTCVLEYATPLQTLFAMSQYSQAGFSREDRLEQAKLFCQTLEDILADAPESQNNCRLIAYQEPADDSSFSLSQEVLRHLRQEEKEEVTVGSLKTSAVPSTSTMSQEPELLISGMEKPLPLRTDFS

**Q.** For O=C(Nc1cnc(N2CC3(CN(CC(F)(F)F)C3)C2)c(Cl)c1)Nc1c[nH]c2ccc(Cl)cc12 [Compound 262, 1-(5-chloro-1H-indol-3-yl)-3-(5-chloro-6-(6-(2,2,2-trifluoroethyl)-2,6-diazaspiro[3.3]heptan-2-yl)pyridin-3-yl)urea], which EC50 is on record?
**A.** 40 to 200 nM

**Q.** With CC1(C)OCC(c2ncc(NC(=O)Nc3c[nH]c4ccccc34)cc2Cl)CO1 [Compound 263, 1-(5-chloro-6-(2,2-dimethyl-1,3-dioxan-5-yl)pyridin-3-yl)-3-(1H-indol-3-yl)urea] as the compound, how does the EC50 read?
**A.** 200 to 1000 nM

**Q.** With CC1(C)OCC(c2ncc(NC(=O)Nc3c[nH]c4ccc(Cl)cc34)cc2Cl)CO1 [Compound 264, 1-(5-chloro-1H-indol-3-yl)-3-(5-chloro-6-(2,2-dimethyl-1,3-dioxan-5-yl)pyridin-3-yl)urea] as the compound, how does the EC50 read?
**A.** 40 to 200 nM

**Q.** With COC(=O)c1cc(NC(=O)Nc2c[nH]c3ccccc23)cnc1C1CCC(F)(F)CC1 [Compound 265, methyl 5-(3-(1H-indol-3-yl)ureido)-2-(4,4-difluorocyclohexyl)nicotinate] as the compound, how does the EC50 read?
**A.** 40 to 200 nM

**Q.** How did the EC50 turn out when O=C(Nc1cnc(N2CCN(CC(F)(F)F)CC2)c(Cl)c1)Nc1c[nH]c2ccc(F)cc12 [Compound 266, 1-(5-chloro-6-(4-(2,2,2-trifluoroethyl)piperazin-1-yl)pyridin-3-yl)-3-(5-fluoro-1H-indol-3-yl)urea] was run?
**A.** 40 to 200 nM

**Q.** With O=C(Nc1cnc(N2CCN(CCC(F)(F)F)CC2)c(F)c1)Nc1c[nH]c2ccc(F)cc12 [Compound 267, 1-(5-fluoro-1H-indol-3-yl)-3-(5-fluoro-6-(4-(3,3,3-trifluoropropyl)piperazin-1-yl)pyridin-3-yl)urea] as the compound, how does the EC50 read?
**A.** 40 to 200 nM

**Q.** For O=C(Nc1cnc(C2CCN(CC(F)(F)F)CC2)c(Cl)c1)Nc1c[nH]c2ccc(F)cc12 [Compound 268, 1-(5-chloro-6-(1-(2,2,2-trifluoroethyl)piperidin-4-yl)pyridin-3-yl)-3-(5-fluoro-1H-indol-3-yl)urea], which EC50 is on record?
**A.** 40 to 200 nM

**Q.** For O=C(Nc1cnc(N2CCN(CC(F)(F)F)CC2)c(Cl)c1)Nc1c[nH]c2cc(F)c(F)cc12 [Compound 269, 1-(5-chloro-6-(4-(2,2,2-trifluoroethyl)piperazin-1-yl)pyridin-3-yl)-3-(5,6-difluoro-1H-indol-3-yl)urea], which EC50 is on record?
**A.** 40 to 200 nM

**Q.** How did the EC50 turn out when O=C(Nc1cnc(C2CCN(CC(F)(F)F)CC2)c(F)c1)Nc1c[nH]c2ccc(F)cc12 [Compound 270, 1-(5-fluoro-1H-indol-3-yl)-3-(5-fluoro-6-(1-(2,2,2-trifluoroethyl)piperidin-4-yl)pyridin-3-yl)urea] was run?
**A.** 40 to 200 nM

**Q.** How did the EC50 turn out when O=C(Nc1cnc(C2CCN(CC(F)(F)F)CC2)c(F)c1)Nc1c[nH]c2ccccc12 [Compound 271, 1-(5-fluoro-6-(1-(2,2,2-trifluoroethyl)piperidin-4-yl)pyridin-3-yl)-3-(1H-indol-3-yl)urea] was run?
**A.** 200 to 1000 nM

**Q.** How did the EC50 turn out when O=C(Nc1ccc(C2CC(F)(F)C2)c(F)c1)Nc1c[nH]c2ccc(F)cc12 [Compound 272, 1-(4-(3,3-difluorocyclobutyl)-3-fluorophenyl)-3-(5-fluoro-1H-indol-3-yl)urea] was run?
**A.** 40 to 200 nM

**Q.** How did the EC50 turn out when O=C(Nc1ccc(N2CCC(F)(F)CC2)nc1)Nc1c[nH]c2ccc(F)cc12 [Compound 273, 1-(6-(4,4-difluoropiperidin-1-yl)pyridin-3-yl)-3-(5-fluoro-1H-indol-3-yl)urea] was run?
**A.** 200 to 1000 nM

**Q.** With O=C(Nc1cnc(N2CCC(F)(F)CC2)c(F)c1)Nc1c[nH]c2ccc(F)cc12 [Compound 274, 1-(6-(4,4-difluoropiperidin-1-yl)-5-fluoropyridin-3-yl)-3-(5-fluoro-1H-indol-3-yl)urea] as the compound, how does the EC50 read?
**A.** 40 to 200 nM

**Q.** For O=C(Nc1cnc(N2CCC3(CC2)CC(F)(F)C3)c(Cl)c1)Nc1c[nH]c2ccc(Cl)cc12 [Compound 275, 1-(5-chloro-1H-indol-3-yl)-3-(5-chloro-6-(2,2-difluoro-7-azaspiro[3.5]nonan-7-yl)pyridin-3-yl)urea], which EC50 is on record?
**A.** 40 to 200 nM

**Q.** For Cc1cc(NC(=O)Nc2c[nH]c3ccccc23)cnc1C1CCN(CC(F)(F)F)CC1 [Compound 276, 1-(1H-indol-3-yl)-3-(5-methyl-6-(1-(2,2,2-trifluoroethyl)piperidin-4-yl)pyridin-3-yl)urea], which EC50 is on record?
**A.** 200 to 1000 nM

**Q.** How did the EC50 turn out when O=C(Nc1cnc(C2CC(F)(F)C2)c(Cl)c1)Nc1c[nH]c2ccc(F)cc12 [Compound 277, 1-(5-chloro-6-(3,3-difluorocyclobutyl)pyridin-3-yl)-3-(5-fluoro-1H-indol-3-yl)urea] was run?
**A.** 40 to 200 nM

**Q.** Which EC50 does the source give for O=C(Nc1cnc(N2CCN(CC(F)(F)F)CC2)c(F)c1)Nc1c[nH]c2ccccc12 [Compound 278, 1-(5-fluoro-6-(4-(2,2,2-trifluoroethyl)piperazin-1-yl)pyridin-3-yl)-3-(1H-indol-3-yl)urea] here?
**A.** 200 to 1000 nM

**Q.** O=C(Nc1cnc(C2CCN(CC(F)(F)F)CC2)c(Cl)c1)Nc1c[nH]c2ccccc12 [Compound 279, 1-(5-chloro-6-(1-(2,2,2-trifluoroethyl)piperidin-4-yl)pyridin-3-yl)-3-(1H-indol-3-yl)urea] was tested. Which EC50 did it give?
**A.** 40 to 200 nM

**Q.** O=C(Nc1ccc(N2CCN(CC(F)(F)F)CC2)nc1)Nc1c[nH]c2ccccc12 [Compound 280, 1-(1H-indol-3-yl)-3-(6-(4-(2,2,2-trifluoroethyl)piperazin-1-yl)pyridin-3-yl)urea] was tested. Which EC50 did it give?
**A.** 200 to 1000 nM

**Q.** With O=C(Nc1cnc(N2CCC3(CCCCO3)CC2)c(Cl)c1)Nc1c[nH]c2ccccc12 [Compound 281, 1-(5-chloro-6-(1-oxa-9-azaspiro[5.5]undecan-9-yl)pyridin-3-yl)-3-(1H-indol-3-yl)urea] as the compound, how does the EC50 read?
**A.** 40 to 200 nM

**Q.** With O=C(Nc1ccc(C2CC(F)(F)C2)c(F)c1)Nc1c[nH]c2ccccc12 [Compound 282, 1-(4-(3,3-difluorocyclobutyl)-3-fluorophenyl)-3-(1H-indol-3-yl)urea] as the compound, how does the EC50 read?
**A.** 200 to 1000 nM

**Q.** Which EC50 does the source give for O=C(Nc1cnc(C2CC(F)(F)C2)c(Cl)c1)Nc1c[nH]c2ccccc12 [Compound 283, 1-(5-chloro-6-(3,3-difluorocyclobutyl)pyridin-3-yl)-3-(1H-indol-3-yl)urea] here?
**A.** 40 to 200 nM

**Q.** For C[C@@H]1CN(c2ncc(NC(=O)Nc3c[nH]c4ccc(Cl)cc34)cc2Cl)CCN1C(=O)OC(C)(C)C [Compound 284, tert-butyl(R)-4-(3-chloro-5-(3-(5-chloro-1H-indol-3-yl)ureido)pyridin-2-yl)-2-methylpiperazine-1-carboxylate], which EC50 is on record?
**A.** 40 to 200 nM

**Q.** For O=C(Nc1cnc(N2CC3CCC(C2)O3)c(Cl)c1)Nc1c[nH]c2ccc(Cl)cc12 [Compound 285, 1-(6-(8-oxa-3-azabicyclo[3.2.1]octan-3-yl)-5-chloropyridin-3-yl)-3-(5-chloro-1H-indol-3-yl)urea], which EC50 is on record?
**A.** 40 to 200 nM

**Q.** C[C@H]1CN(c2ncc(NC(=O)Nc3c[nH]c4ccc(Cl)cc34)cc2Cl)C[C@H](C)O1 [Compound 286, 1-(5-chloro-1H-indol-3-yl)-3-(5-chloro-6-((2S,6S)-2,6-dimethylmorpholino)pyridin-3-yl)urea] was tested. Which EC50 did it give?
**A.** 40 to 200 nM

**Q.** Which EC50 does the source give for O=C(Nc1cc(Cl)c(C2CCC(F)(F)CC2)cn1)Nc1c[nH]c2ccc(F)cc12 [Compound 287, 1-(4-chloro-5-(4,4-difluorocyclohexyl)pyridin-2-yl)-3-(5-fluoro-1H-indol-3-yl)urea] here?
**A.** 40 to 200 nM

**Q.** Which EC50 does the source give for C[C@@H]1CN(c2ncc(NC(=O)Nc3c[nH]c4ccc(Cl)cc34)cc2Cl)C[C@H](C)N1 [Compound 288, 1-(5-chloro-1H-indol-3-yl)-3-(5-chloro-6-(cis-3,5-dimethylpiperazin-1-yl)pyridin-3-yl)urea] here?
**A.** 5000 to 100000 nM

**Q.** For C[C@H]1CN(c2ncc(NC(=O)Nc3c[nH]c4ccc(Cl)cc34)cc2Cl)C[C@H](C)N1 [Compound 289, 1-(5-chloro-1H-indol-3-yl)-3-(5-chloro-6-((3S,5S)-3,5-dimethylpiperazin-1-yl)pyridin-3-yl)urea], which EC50 is on record?
**A.** 5000 to 100000 nM

**Q.** With CC1(C)CN(c2ncc(NC(=O)Nc3c[nH]c4cc(F)c(F)cc34)cc2F)CCO1 [Compound 290, 1-(5,6-difluoro-1H-indol-3-yl)-3-(6-(2,2-dimethylmorpholino)-5-fluoropyridin-3-yl)urea] as the compound, how does the EC50 read?
**A.** 40 to 200 nM

**Q.** C[C@@H]1CN(c2ncc(NC(=O)Nc3c[nH]c4ccc(Cl)cc34)cc2Cl)C[C@@H](C)N1 [Compound 291, 1-(5-chloro-1H-indol-3-yl)-3-(5-chloro-6-((3R,5R)-3,5-dimethylpiperazin-1-yl)pyridin-3-yl)urea] was tested. Which EC50 did it give?
**A.** 1000 to 5000 nM

**Q.** For O=C(Nc1cnc(N2CCC(F)(F)CC2)c(F)c1)Nc1c[nH]c2ccc(Cl)cc12 [Compound 292, 1-(5-chloro-1H-indol-3-yl)-3-(6-(4,4-difluoropiperidin-1-yl)-5-fluoropyridin-3-yl)urea], which EC50 is on record?
**A.** 40 to 200 nM

**Q.** How did the EC50 turn out when C[C@@H]1CN(c2ncc(NC(=O)Nc3c[nH]c4ccc(Cl)cc34)cc2Cl)C[C@H](C)O1 [Compound 293, 1-(5-chloro-1H-indol-3-yl)-3-(5-chloro-6-((2S,6R)-2,6-dimethylmorpholino)pyridin-3-yl)urea] was run?
**A.** 40 to 200 nM

**Q.** For CC1(C)OCC(c2ncc(NC(=O)Nc3c[nH]c4ccc(Cl)cc34)cc2Br)CO1 [Compound 294, 1-(5-bromo-6-(2,2-dimethyl-1,3-dioxan-5-yl)pyridin-3-yl)-3-(5-chloro-1H-indol-3-yl)urea], which EC50 is on record?
**A.** 40 to 200 nM

**Q.** O=C(Nc1cnc(C2CCC(F)(F)CC2)c(F)c1)Nc1c[nH]c2ccc(Cl)cc12 [Compound 295, 1-(5-chloro-1H-indol-3-yl)-3-(6-(4,4-difluorocyclohexyl)-5-fluoropyridin-3-yl)urea] was tested. Which EC50 did it give?
**A.** 40 to 200 nM

**Q.** Which EC50 does the source give for C[C@H]1CN(c2ncc(NC(=O)Nc3c[nH]c4ccc(Cl)cc34)cc2Cl)CCN1 [Compound 296, (S)-1-(5-chloro-1H-indol-3-yl)-3-(5-chloro-6-(3-methylpiperazin-1-yl)pyridin-3-yl)urea] here?
**A.** 1000 to 5000 nM

**Q.** Which EC50 does the source give for O=C(Nc1cnc(C2CCN(CC(F)(F)F)CC2)c(Cl)c1)Nc1c[nH]c2ccc(Cl)cc12 [Compound 297, 1-(5-chloro-1H-indol-3-yl)-3-(5-chloro-6-(1-(2,2,2-trifluoroethyl)piperidin-4-yl)pyridin-3-yl)urea] here?
**A.** 40 to 200 nM

**Q.** How did the EC50 turn out when CC1(C)CN(c2ncc(NC(=O)Nc3c[nH]c4ccc(Cl)cc34)cc2Cl)CCO1 [Compound 298, 1-(5-chloro-1H-indol-3-yl)-3-(5-chloro-6-(2,2-dimethylmorpholino)pyridin-3-yl)urea] was run?
**A.** 40 to 200 nM
